Source: patent US6793925B2 (priority 1999, dated 2004)
In brackets after ≈: the same amount, converted by molar mass. Bridge positions count the residues as written; N and C are the ends. Square brackets hold non-standard residues; d marks the D form. Peptide text beside a SMILES is read from it. * marks the point of attachment. Asp(3S-OH) = N[C@H](C(=O)O)[C@H](O)C(=O)O; Thr(4-Cl) = N[C@H](C(=O)O)[C@H](O)CCl; X1 = CCCCCCCCCCCC(O)C(O)CC(=O)*; aThr = C[C@H](O)[C@H](N)C(=O)O; X2 = CCCCCCCCCC(O)CC(=O)*; dDab = NCC[C@@H](N)C(=O)O; Dab = NCC[C@H](N)C(=O)O; Dhb = C/C=C(\N)C(=O)O

Assays:
Assay type in all cases: cell-based
Details in all cases: complete inhibition of growth, Sabourauds and dextrose broth, 35° C., 48 hr, highest concentration 20 μg/ml
Aspergillus fumigatus = experiment: microtiter broth dilution antifungal assay (MIC)
Procedure: (§1) The presence or amount of a pseudomycin or mixture of pseudomycins can be determined by measuring the antifungal activity of a preparation. Antifungal activity was determined in vitro by obtaining the minimum inhibitory concentration (MIC) of the preparation using a standard agar dilution test or a disc-diffusion test. A preparation of one or more pseudomycins can be an extract of a cell culture, or a more purified mixture. A typical fungus employed in testing antifungal activity is C. albicans. Antifungal activity was considered significant when the test preparation caused 10-12 mm diameter zones of inhibition on Candida albicans x657 seeded agar plates.
(§2) The antifungal studies were conducted using a microtiter broth dilution assay according to National Committee for Clinical Laboratory Standards guidelines in 96 well microtiter plates. Sabourauds and dextrose broth was adjusted to contain 2.5×10^4 conida/ml. Test compound was dissolved in water and tested in two-fold dilutions starting with the highest concentration of 20 μg/ml. Plates were incubated at 35° C. for 48 hr.

C. parapsilosis = experiment: microtiter broth dilution antifungal assay (MIC)
Procedure: as §1, §2

Candida albicans = experiment: microtiter broth dilution antifungal assay (MIC)
Procedure: as §1, §2

Cryptococcus neoformans = experiment: microtiter broth dilution antifungal assay (MIC)
Procedure: as §1, §2

Histoplasma capsulatum = system: Histoplasma capsulatum

Compound | MIC (Aspergillus fumigatus) | MIC (C. parapsilosis) | MIC (Candida albicans) | MIC (Cryptococcus neoformans) | MIC (Histoplasma capsulatum)
C/C=C1\NC(=O)[C@H]([C@H](C)O)NC(=O)[C@H](CCN)NC(=O)[C@H](CCCCN)NC(=O)[C@H](CC(=O)O)NC(=O)[C@@H](CCN)NC(=O)[C@@H](NC(=O)CC(O)C(O)CCCCCCCCCCC)COC(=O)[C@H]([C@H](O)CCl)NC(=O)[C@H]([C@H](O)C(=O)O)NC1=O (stereo partly drawn) [Pseudomycin A′, pseudomycin A′] (X1-S[dDab]DK[Dab][aThr][Dhb][Asp(3S-OH)][Thr(4-Cl)]; ester 1-C) | >20 µg/mL | 5.0 µg/mL (≈ 4.04 µM) | 2.5 µg/mL (≈ 2.02 µM) | 1.25 µg/mL (≈ 1.01 µM) | 5.0 µg/mL (≈ 4.04 µM)
C/C=C1\NC(=O)[C@H]([C@H](C)O)NC(=O)[C@H](CCN)NC(=O)[C@H](CCCCN)NC(=O)[C@H](CC(=O)O)NC(=O)[C@@H](CCN)NC(=O)[C@@H](NC(=O)CC(O)CCCCCCCCC)COC(=O)[C@H]([C@H](O)CCl)NC(=O)[C@H]([C@H](O)C(=O)O)NC1=O (stereo partly drawn) [Pseudomycin B′, pseudomycin B′] (X2-S[dDab]DK[Dab][aThr][Dhb][Asp(3S-OH)][Thr(4-Cl)]; ester 1-C) | >20 µg/mL | 10 µg/mL (≈ 8.48 µM) | 10 µg/mL (≈ 8.48 µM) | 1.25 µg/mL (≈ 1.06 µM) | 1.25-5.0 μ/ml
